The source of these data is patent publication US20120189627A1, “Semi-Synthetic GLP-1 Peptide-FC Fusion Constructs, Methods and Uses” (priority 2007, published 2012).

The conditions of assay [1]: administered subcutaneously; cited from earlier work.
The conditions of assay [2]: type 2 diabetic patients, cited from earlier work.
A further assay addresses T1, GLP-1 Receptor (Rattus norvegicus, UniProt P32301).
T1 construct: endogenous in cells; host or cells: INS-1E cells
T1 sequence (P32301 22-463): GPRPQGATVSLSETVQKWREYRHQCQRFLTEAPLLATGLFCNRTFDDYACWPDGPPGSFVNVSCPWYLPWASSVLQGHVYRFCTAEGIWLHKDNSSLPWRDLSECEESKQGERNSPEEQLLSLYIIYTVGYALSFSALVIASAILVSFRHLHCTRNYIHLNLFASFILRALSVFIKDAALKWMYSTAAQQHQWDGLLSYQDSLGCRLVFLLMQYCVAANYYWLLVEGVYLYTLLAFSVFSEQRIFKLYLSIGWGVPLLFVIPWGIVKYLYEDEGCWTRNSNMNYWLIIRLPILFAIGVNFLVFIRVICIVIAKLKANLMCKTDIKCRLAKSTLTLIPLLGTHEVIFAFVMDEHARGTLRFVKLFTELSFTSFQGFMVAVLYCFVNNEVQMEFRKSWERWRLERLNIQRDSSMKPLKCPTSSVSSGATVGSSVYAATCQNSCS
The assay is described as follows: LANCE cAMP assay in INS-1E cells. The class given is cell-based. The settings on record: FIG. 1. On the procedure:
The peptide-conjugates were tested for activity using the cAMP assay which measures cAMP produced upon modulation of adenylyl cyclase activity by GPCRs. • cAMP Assay The LANCE™ cAMP assay (Hemmila I. 1999. LANCE™: Homogeneous Assay Platform for HTS. J Biomol Screen. 4(6), 303-308) is a homogeneous time-resolved fluorescence resonance energy transfer (TR-FRET) immunoassay. The assay is based on the competition between a europium-labeled cAMP tracer and sample cAMP for binding sites on cAMP-specific antibodies labeled with the dye Alexa Fluor® 647. The europium-labeled tracer complex is formed by the tight interaction between Biotin-cAMP and streptavidin labeled with Europium-W8044 chelate. When antibodies are bound to the Eu-SA/b-cAMP tracer, light pulse 340 nm excites the Eu-chelate molecules of the tracer. […] The fluorescence intensity measure at 665 nm will decrease in the presence of cAMP from the test samples and resulting signals will be inversely proportional to the cAMP concentration of a sample (LANCE cAMP manual). • Cells and Assay. […]
For the assay, INS-1E cells were plated at confluence in 96-well plates (Costar 3610) and allowed to recover for 4 days in normal growth media. […] The plates were incubated at room temperature for 1 hour and then fluorescence intensity was measured at 665 nm. Cyclic AMP concentrations were determined against a standard curve.
(In general: Time-resolved FRET reads energy transfer from a long-lived donor to a nearby acceptor.)

Ends that are not written are not given here.

As to “GLP-1 (7-36) amide: GLP-1 (7-36) amide, GLP-1 peptide of the background section (HAEGTFTSDVSSYLEGQAAKEFIAWLVKGR-NH2; UniProt P01275 98-127, looked up)”, the time action entry in assay [1] is listed as “about 50 minutes”.

Turning to “GLP-1: Glucagon like peptide-1, peptide secreted from the L-cells of the intestine; given as six-week infusion (HAEGTFTSDVSSYLEGQAAKEFIAWLVKGRG-NH2; listed as Homo sapiens)”, the “fasting and 8-hour mean plasma glucose levels” value in assay [2] (six-week infusion) is “lowered”. For the same substance, the β-cell function result in assay [2] is “improvement”.

As for “His-[D-Ala]-Glu-Gly-Thr-Phe-Thr-Ser-Asp-Val-Ser-Ser-Tyr-Leu-Glu-Gly-Gln-Ala-Ala-Lys-Glu-Phe-Ile-Ala-Trp-Leu-Val-Lys-Gly-Arg-Gly-(N-3-aminopropyl)-PEG3-NH—CO—CH2—NH—NH2 [Peptide 1]”, the “bioactivity: ability to stimulate cAMP compared to wild-type GLP-1” value at GLP-1 Receptor is given as “no loss in bioactivity”.
